# Laboratory results from US20260226034A1 (The Rockefeller University, priority 2023, published 2026).
# Target: NSP14 (Severe acute respiratory syndrome coronavirus 2, UniProt P0DTD1)
# Assay: NSP14 MTase inhibition assay at 37° C. (MTase-Glo SAH detection)
# Type: biochemical, SARS-CoV-2
# Settings: 0.3 nM NSP14, 2.5 μM SAM, 2.5 μM GpppA RNA, 45 min at 37° C.; read-out: Nsp14 Mtase Inh. IC50
# Procedure: NSP14 MTase assay at 37° C. (0.3 nM NSP14 as final enzyme concentration)
# The NSP14 MTase assay at 37° C. is carried out in 384-well flat bottom polystyrene microplates (Greiner, 781075). Per well, 10 μl of 1×NSP14 reaction buffer (50 mM Tris-HCl, pH 7.5, 6 mM KCl, 1.25 mM MgCl2, 1 mM DTT, and 0.01% Tween-20) are dispensed in columns 1-23 using a Thermo Multidrop Combi dispenser (Thermo Scientific). 0.1 μl of serially diluted compounds in DMSO are dispensed into columns 1-22 of the assay microplates with a Janus 384 MDT NanoHead (PerkinElmer). In wells of column 23, which serve as negative controls, no compounds are added.
# The NSP14 reaction is started by adding 4 μl of a 4× substrate solution containing S-adenosyl methionine (SAM, 10 μM) and GpppA RNA (10 μM) prepared in 1×NSP14 reaction buffer. Any addition of reagents is followed by a 30 second centrifugation at 500×g to ensure that all liquid was collected at the bottom of the well. The final concentrations of NSP14, SAM, and GpppA RNA are 0.3 nM, 2.5 μM, and 2.5 μM, respectively. The final reaction volume is 16 μl. Plates are sealed and incubated for 45 min at 37° C.
# For SAH detection, 1 μl 5× MTase-Glo™ Reagent (Promega) is added to each well, plates are mixed for 1-2 minutes and incubated at room temperature for 30 minutes. 5 μl of room-temperature MTase-Glo™ Detection Solution (Promega) is added to each well, plates are mixed for 1-2 minutes and incubated at room temperature for 30 minutes. Luminescence signals of each well are recorded in relative light units (RLUs) using a Biotek Synergy Neo plate reader (BioTek, Winooski, VT). The SAH production is normalized against the positive control (PK, column 24) and negative control (NK, column 23) as follows: normalized % inhibition=100×(RLUsample-RLUaverageNK)/(RLUaveragePK-RLUaverageNK).
row,Structure (SMILES),IC50
1,Cc1c(S(=O)(=O)c2ccc3[nH]ncc3c2)cc(C(=O)N[C@@H]2CCN(c3cnnc(Cl)c3)C2)n1C [A.118],< 150 pM
2,Cc1c(S(=O)(=O)c2ccc3[nH]ncc3c2)cc(C(=O)N[C@H]2CCN(c3ncc(F)cn3)C2)n1C [A.47],2200 pM
3,"Cc1c(S(=O)(=O)c2ccccc2)cc(C(=O)NCc2c(F)ccc3cnn(C)c23)n1C [A.7, N-((6-fluoro-1-methyl-1H-indazol-7-yl)methyl)-1,5-dimethyl-4-(phenylsulfonyl)-1H-pyrrole-2-carboxamide]",1700 pM
4,Cc1c(S(=O)(=O)c2cc(F)c3[nH]ncc3c2)cc(C(=O)N[C@@H]2CCN(c3ncc(F)cn3)C2)n1C [A.40],< 150 pM
5,"Cc1cc(S(=O)(=O)c2cc(C(=O)NCc3c(F)ccc4occc34)n(C)c2C)cc2cn[nH]c12 [A.1, N-[(5-fluorobenzofuran-4-yl)methyl]-1,5-dimethyl-4-[(7-methyl-1H-indazol-5-yl)sulfonyl]pyrrole-2-carboxamide]",200 pM
6,Cc1c(S(=O)(=NCC2CC2)c2ccc3[nH]ncc3c2)cc(C(=O)N[C@@H]2CCN(c3ncc(F)cn3)C2)n1C (stereo partly shown) [A.69],8700 pM
7,Cc1c(S(=O)(=O)c2ccc3[nH]ncc3c2)cc(C(=O)N[C@@H]2CCN(c3cccc(C#N)c3C#N)C2)n1C [A.109],< 150 pM
8,Cc1c(S(=O)(=O)c2ccc3[nH]ncc3c2)cc(C(=O)N[C@@H]2CCN(c3cnccn3)C2)n1C [A.71],550 pM
9,Cc1c(S(=O)(=O)c2ccc3[nH]ncc3c2)cc(C(=O)N[C@@H]2CCN(c3nccc(C(F)(F)F)n3)C2)n1C [A.66],810 pM
10,Cc1c(S(=O)(=O)c2ccc3[nH]ncc3c2)cc(C(=O)N[C@@H]2CCN(c3ccncn3)C2)n1C [A.93],200 pM
11,Cc1c(S(=O)(=O)c2ccc3[nH]ncc3c2)cc(C(=O)NC2CCCN(c3ncc(F)cn3)C2)n1C (stereo not shown) [A.77],7900 pM
12,Cc1c(S(=O)(=O)c2ccc3[nH]ncc3c2)cc(C(=O)N[C@@H]2CCN(c3ccc(C(F)(F)F)cn3)C2)n1C [A.65],1000 pM
13,Cc1c(S(=O)(=O)c2ccc3[nH]ncc3c2)cc(C(=O)N[C@@H]2CCN(c3ccccc3C#N)C2)n1C [A.83],840 pM
14,Cc1c(S(=O)(=O)c2ccc3[nH]ncc3c2)cc(C(=O)N[C@@H]2CCN(Cc3ccc(F)cn3)C2)n1C [A.104],4300 pM
15,Cc1c(S(=O)(=O)c2ccc3[nH]ncc3c2)cc(C(=O)N[C@@H]2CCN(Cc3ccc(C#N)cn3)C2)n1C [A.105],14000 pM
16,Cc1c(S(=O)(=O)c2ccncc2)cc(C(=O)NCc2cccc3cnn(C)c23)n1C [A.27],102000 pM
17,Cc1c(S(=O)(=O)c2ccc3[nH]ncc3c2)cc(C(=O)N[C@@H]2CCN(c3ccc(F)cc3)C2)n1C [A.81],580 pM
18,Cc1c(S(=O)(=O)c2ccc3[nH]ncc3c2)cc(C(=O)N[C@@H]2CCN(c3ncc(C#N)cn3)C2)n1C [A.49],630 pM
19,Cc1c(S(=O)(=O)c2ccc3[nH]ncc3c2)cc(C(=O)N[C@@H]2CCN(c3ccnc(C(F)F)c3)C2)n1C [A.107],170 pM
20,"Cc1c(S(=O)(=O)c2ccc(C(C)O)cc2)cc(C(=O)NCc2cccc3cnn(C)c23)n1C (stereo not shown) [A.32, 4-[4-(1-hydroxyethyl)phenyl]sulfonyl-1,5-dimethyl-N-[(1-methylindazol-7-yl)methyl]pyrrole-2-carboxamide]",389000 pM

# Same assay, conditions: 37° C., 0.3 nM NSP14, 2.5 μM SAM, 2.5 μM GpppA RNA; read-out: Nsp14 Mtase Inh. IC50
row,Structure (SMILES),IC50
1,Cc1c(S(=O)(=O)c2ccc3[nH]ncc3n2)cc(C(=O)NCc2cccc3cnn(C4CC4)c23)n1C [B.50],51000 pM
2,Cc1c(S(=O)(=O)c2ccc3c(cnn3C)c2)cc(C(=O)NCc2c(F)ccc3cnn(C4CC4)c23)n1CCCC(=O)O [B.62],< 150 pM
3,Cc1c(S(=O)(=O)c2ccc3[nH]ncc3c2)cc(C(=O)NCc2c(F)ccc3nnn(C)c23)n1C [B.43],< 150 pM
4,Cc1c(S(=O)(=O)c2ccc3[nH]ncc3c2)cc(C(=O)NCc2cncnc2N2CCC(F)(F)C2)n1C [B.40],220 pM
5,Cc1c(S(=O)(=O)c2ccc3[nH]ncc3c2)cc(C(=O)NCc2cccc3c2N(C)C(=O)C32CC2)n1C [B.32],180 pM
6,Cc1c(S(=O)(=O)c2ccc3c(cnn3C)c2)cc(C(=O)NCc2c(F)ccnc2N2CCC(C(=O)NS(C)(=O)=O)C2)n1C (stereo not shown) [B.182],< 150 pM
7,"Cc1c(S(=O)(=O)c2ccc3[nH]ncc3c2)cc(C(=O)N[C@H](C)c2c(F)cccc2F)n1C (single isomer, unassigned) [B.64]",4000 pM
8,Cc1c(S(=O)(=O)c2cc(C(F)(F)F)c3[nH]ncc3c2)cc(C(=O)NCc2c(F)ccc3nnn(C4CC4)c23)n1C [B.144],1000 pM
9,Cc1c(S(=O)(=O)c2ccc3[nH]ncc3c2)cc(C(=O)NCc2c(Cl)cnn2C)n1CC(F)F [B.186],1100 pM
10,COc1ccc(CNC(=O)c2cc(S(=O)(=O)c3ccc4[nH]nc(F)c4c3)c(C)n2C)c(C(F)(F)F)n1 [B.176],7000 pM
11,Cc1c(S(=O)(=O)c2ccc3[nH]ncc3c2)cc(C(=O)NCc2ccccc2C#N)n1C [B.101],192000 pM
12,Cc1c(S(=O)(=O)c2cc(C#N)c3[nH]ncc3c2)cc(C(=O)NCc2c(F)ccc3cnn(C4CC4)c23)n1C [B.98],500 pM
13,Cc1c(S(=O)(=O)c2ccc3c(c2)CNC3)cc(C(=O)NCc2cccc3cnn(C)c23)n1C [B.10],113000 pM
14,Cc1c(S(=O)(=O)c2cc(Cl)cc(C#N)c2)cc(C(=O)NCc2c(Cl)cnn2C)n1C [B.193],6400 pM
15,Cc1c(S(=O)(=O)c2ccc3[nH]ncc3c2)cc(C(=O)NCc2c(F)cc(F)cc2F)n1C [B.86],410 pM
16,Cc1c(S(=O)(=O)c2ccc3[nH]ncc3c2)cc(C(=O)NCc2c[nH]c(=O)c3ccccc23)n1C [B.21],540 pM
17,Cc1c(S(=O)(=O)c2ccc3[nH]ncc3c2)cc(C(=O)NCc2cccnc2C(F)(F)F)n1C [B.53],7000 pM
18,CCn1nccc1CNC(=O)c1cc(S(=O)(=O)c2ccc3[nH]ncc3c2)c(C)n1C [B.166],950 pM
19,Cc1c(S(=O)(=O)c2ccc3[nH]ncc3c2)cc(C(=O)NCc2ccccc2F)n1C [B.76],1600 pM

row,Structure (SMILES),IC50
1,Cc1c(S(=O)(=O)c2ccc3[nH]ncc3c2)cc(C(=O)NCc2c(F)cc(F)c3cnn(C)c23)n1C [B.69],< 150 pM
2,Cc1c(S(=O)(=O)c2ccc3[nH]ncc3c2)cc(C(=O)NCc2c(F)cccc2Cl)n1C [B.85],200 pM
3,Cc1c(S(=O)(=O)c2cc(C#N)c3[nH]ncc3c2)cc(C(=O)NCc2cccc3cnn(C4CC4)c23)n1C [B.106],320 pM
4,Cc1c(S(=O)(=O)c2ccc3[nH]ncc3c2)cc(C(=O)NCc2c(Cl)cnn2C)n1CC(F)(F)F [B.185],3900 pM
5,Cc1c(S(=O)(=O)c2ccc3[nH]ncc3c2)cc(C(=O)NCc2c(Cl)ccc(=O)n2C)n1C [B.174],700 pM
6,Cc1c(S(=O)(=O)c2ccc3[nH]ncc3c2)cc(C(=O)NCc2cccc3ccc(=O)n(C)c23)n1C [B.11],2100 pM
7,Cc1c(S(=O)(=O)c2ccc3[nH]ncc3c2)cc(C(=O)NCc2ccccc2S(C)(=O)=O)n1C [B.56],2900 pM
8,Cc1c(S(=O)(=O)c2ccc3[nH]ncc3c2)cc(C(=O)NCc2c[nH]c(=O)c3ncccc23)n1C [B.155],300 pM
9,Cc1c(S(=O)(=O)c2ccc3[nH]ncc3c2)cc(C(=O)NCc2c(F)ccc3cnn(C4CC4)c23)n1C [B.16],380 pM
10,Cc1c(S(=O)(=O)c2ccc3[nH]ncc3c2)cc(C(=O)NCc2ccc(=O)n(C)c2)n1C [B.177],138000 pM
11,Cc1c(S(=O)(=O)c2ccc3[nH]ncc3c2)cc(C(=O)NCc2ccc(N(C)C)nn2)n1C [B.73],116000 pM
12,Cc1c(S(=O)(=O)c2cc(Cl)c3[nH]ncc3c2)cc(C(=O)NCc2c(F)ccc3cnn(C4CC4)c23)n1C [B.79],170 pM
13,Cc1c(S(=O)(=O)c2ccc3[nH]nc(F)c3c2)cc(C(=O)NCc2cncnc2N2CCC(F)(F)C2)n1C [B.38],560 pM
14,Cc1c(S(=O)(=O)c2ccc3[nH]ncc3c2)cc(C(=O)NCc2cc(F)cc3cnn(C)c23)n1C [B.96],1000 pM
15,Cc1c(S(=O)(=O)c2ccc3[nH]ncc3c2)cc(C(=O)NCc2c(F)ccc3ncn(C4CC4)c23)n1C [B.18],< 150 pM
16,Cc1c(S(=O)(=O)c2ccc3[nH]nc(F)c3c2)cc(C(=O)NC(c2ccccc2)C(F)(F)F)n1C (stereo not shown) [B.122],70000 pM
17,Cc1c(S(=O)(=O)c2ccc3[nH]ncc3c2)cc(C(=O)NCc2ccn3nccc3c2)n1C [B.141],16000 pM
18,Cc1cc(S(=O)(=O)c2cc(C(=O)NCc3c(F)ccnc3N3CCC(C)(C(=O)O)C3)n(C)c2C)cc2cnn(C)c12 (racemic) [B.127],580 pM
19,Cc1c(S(=O)(=O)c2ccc3[nH]ncc3c2)cc(C(=O)NCc2cccc3c2N(C)C(=O)C3)n1C [B.13],600 pM
